This is an account of results in ChEMBL document CHEMBL5576095, “Research progress of multi-target HDAC inhibitors blocking the BRD4-LIFR-JAK1-STAT3 signaling pathway in the treatment of cancer” (Bioorg Med Chem, 2024).

The subject of one assay is MV4-11. Description: Antiproliferative activity against human MV4-11 cells assessed as reduction in cell growth. Format: functional, cell-based.
The nature of assay [1]: Inhibition of CD4 (unknown origin).
Assay [2] has as its target Tyrosine-protein kinase JAK1 (Homo sapiens, UniProt P23458). Kind of assay: Inhibition of JAK1 (unknown origin).
The target in a further assay is Histone deacetylase 1 (Homo sapiens, UniProt Q13547). Description: Inhibition of HDAC1 (unknown origin).
Assay [3] deals with KATO III stomach cancer cell line. Kind of assay: cells. The conditions noted are these: Homo sapiens.
Description: Antiproliferative activity against human KATO III stomach cancer cell line

Sequence of Tyrosine-protein kinase JAK1 (P23458 whole entry): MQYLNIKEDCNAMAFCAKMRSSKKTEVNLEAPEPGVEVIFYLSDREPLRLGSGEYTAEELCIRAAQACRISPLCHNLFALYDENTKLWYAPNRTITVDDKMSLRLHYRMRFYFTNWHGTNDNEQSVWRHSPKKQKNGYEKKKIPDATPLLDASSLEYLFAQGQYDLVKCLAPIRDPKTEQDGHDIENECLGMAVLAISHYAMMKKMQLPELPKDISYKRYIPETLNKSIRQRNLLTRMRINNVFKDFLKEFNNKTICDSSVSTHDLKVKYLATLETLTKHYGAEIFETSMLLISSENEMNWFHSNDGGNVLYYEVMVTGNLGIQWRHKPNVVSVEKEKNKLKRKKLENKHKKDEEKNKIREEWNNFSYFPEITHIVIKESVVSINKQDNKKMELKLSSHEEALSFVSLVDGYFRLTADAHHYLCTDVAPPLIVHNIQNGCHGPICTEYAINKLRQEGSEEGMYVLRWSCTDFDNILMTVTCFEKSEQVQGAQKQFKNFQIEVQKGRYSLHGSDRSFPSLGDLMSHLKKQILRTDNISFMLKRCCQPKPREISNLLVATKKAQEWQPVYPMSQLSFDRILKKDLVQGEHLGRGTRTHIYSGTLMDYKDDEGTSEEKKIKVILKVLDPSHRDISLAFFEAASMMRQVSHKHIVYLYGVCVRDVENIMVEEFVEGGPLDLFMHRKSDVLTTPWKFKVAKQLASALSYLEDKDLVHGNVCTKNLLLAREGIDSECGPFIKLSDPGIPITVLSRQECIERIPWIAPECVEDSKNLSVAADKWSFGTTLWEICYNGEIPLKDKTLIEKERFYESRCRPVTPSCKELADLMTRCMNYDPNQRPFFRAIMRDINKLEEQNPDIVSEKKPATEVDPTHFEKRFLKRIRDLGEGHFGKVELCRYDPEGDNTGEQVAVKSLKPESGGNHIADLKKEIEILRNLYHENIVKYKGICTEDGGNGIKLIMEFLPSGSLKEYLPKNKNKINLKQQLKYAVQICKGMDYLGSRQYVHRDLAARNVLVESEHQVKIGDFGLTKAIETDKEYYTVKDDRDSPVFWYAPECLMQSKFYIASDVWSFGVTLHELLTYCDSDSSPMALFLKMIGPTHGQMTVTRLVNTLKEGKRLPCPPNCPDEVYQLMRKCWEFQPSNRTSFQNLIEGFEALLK
Sequence of Histone deacetylase 1 (Q13547 whole entry): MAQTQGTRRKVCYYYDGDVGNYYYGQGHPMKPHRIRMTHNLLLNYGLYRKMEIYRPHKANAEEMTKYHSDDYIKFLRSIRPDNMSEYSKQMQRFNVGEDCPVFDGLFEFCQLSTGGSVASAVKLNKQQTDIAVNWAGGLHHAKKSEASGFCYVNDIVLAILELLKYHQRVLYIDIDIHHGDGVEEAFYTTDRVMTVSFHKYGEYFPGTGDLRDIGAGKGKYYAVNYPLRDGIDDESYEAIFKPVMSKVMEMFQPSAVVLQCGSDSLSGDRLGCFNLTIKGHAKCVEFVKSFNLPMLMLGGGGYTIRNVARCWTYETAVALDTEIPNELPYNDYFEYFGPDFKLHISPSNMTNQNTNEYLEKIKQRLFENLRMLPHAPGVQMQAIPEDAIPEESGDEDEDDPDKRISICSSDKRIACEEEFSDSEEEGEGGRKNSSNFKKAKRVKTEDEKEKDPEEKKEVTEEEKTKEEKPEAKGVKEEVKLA

On to `CCNC(=O)c1cc2c(-c3cc(C(C)(C)O)ccc3Oc3c(C)cc(F)cc3C)cn(C)c(=O)c2[nH]1` [ABBV-744], for which the IC50 (in general, the concentration at which inhibition is half-maximal) in the assay on MV4-11 was 0.04 µM.
For `CCn1c(C)nc2c(F)cc(-c3nc(Nc4ccc(CNC(=O)CCCCCCC(=O)NO)cc4)ncc3F)cc21`, the IC50 in assay [1] stood at 0.0012 µM; in assay [2], 0.022 µM; on Histone deacetylase 1, 0.026 µM.
The molecule `COc1cc(OC)cc(N(CCNC(C)C)c2ccc3ncc(-c4cnn(C)c4)nc3c2)c1` [ERDAFITINIB] yielded an IC50 in assay [3] of 0.004 µM.
